From patent publication US20150126465A1, “PROCESS FOR PRODUCING DERIVATIVES OF PYROSTEGIA VENUSTA, DERIVATIVES OF PYROSTEGIA VENUSTA, PHARMACEUTICAL COMPOSITIONS AND ITS USES” (priority 2011, published 2015)
In brackets after ≈: the same amount, converted by molar mass. Where two headings read alike, the source gives them in different places.

Columns and labels:
[1] = test system: Candida parapsilosis USP 1933; assay: MIC/CFM by microdilution (CLSI M27-A2); type: cell-based; set-up: key to MIC: —: There was no growth inhibition
[2] = test system: Candida krusei ATCC 6258; assay: MIC/CFM by microdilution (CLSI M27-A2); type: cell-based; set-up: key to MIC: —: There was no growth inhibition
[3] = test system: Candida guilhermondii USP; assay: MIC/CFM by microdilution (CLSI M27-A2); type: cell-based; set-up: key to MIC: —: There was no growth inhibition
[4] = test system: Trichophyton rubrum ATCC MYA-3108; assay: MIC by microdilution, filamentous fungi (CLSI M38-A); type: cell-based; conditions: Table 11, Trichophyton rubrum ATCC MYA-3108
[5] = test system: Candida krusei USP 2223; assay: MIC by microdilution (CLSI M27-A2); type: cell-based; set-up: key: —: There was no growth inhibition
[6] = test system: Candida tropicalis USP B3; assay: MIC by microdilution (CLSI M27-A2); type: cell-based; set-up: key: —: There was no growth inhibition
[7] = test system: Candida albicans USP 1565; assay: MIC by microdilution (CLSI M27-A2); type: cell-based; set-up: key: —: There was no growth inhibition
[8] = test system: Candida tropicalis USP 1658; assay: MIC by microdilution (CLSI M27-A2); type: cell-based; set-up: key: —: There was no growth inhibition
[9] = DPPH antioxidant test; type: biochemical; conditions: 517 nm
Description: The antioxidant activity evaluation was performed through DPPH test.
Extract flower ethanol samples and PV6.7 were dissolved in methanol in concentrations of 1 mg.mL-1, 500 μg, mL-1, 250 μg, mL-1, 125 μg, mL-1, 62.5 μg, mL-1 and 31.25 μg, mL-1. As control Metabissulfito and Rutin were used in the same conditions of the samples.
Around 0.002 g of DPPH was dissolved in 50 mL of methanol. Then, it was verified the solution absorbance in spectrophotometer, in 517 nm, which must be below 1.
In a plastic Eppendorf, it was added 950 μL of methanolic solution of DPPH and 50 μL of the sample. As white, it was used in the place of the sample 50 μL of methanol. The samples were then incubated for 15 minutes at 30° C. After this period, the solutions were transferred to cuvettes and performed the readings at 517 nm, zeroing the spectrophotometer with methanol.
% inhibition=B−A/B×100, being A=sample, and B=White

[10] = test system: Trichophyton menthagrophyton ATCC 9533; assay: MIC by microdilution, filamentous fungi (CLSI M38-A); type: cell-based; conditions: Table 13, Trichophyton menthagrophyton ATCC 9533, 7 days, 28° C.
Description: (§1) Pure substances termed P1 and P2 previously dissolved in 20% DMSO, were diluted in RPMI medium, with final concentrations of 96 μg.mL-1. […] Cultures of filamentous fungi described below were inoculated in Agar-Batata Dextrose medium and inoculated for 7 days, at 28° C. Colonies of cultures inoculated for 7 days in an oven at 28° C. were shrouded with 0.85% saline solution, scraped and then transferred to conical tubes. After resting for 5 minutes, the supernatant was transferred to new conical tubes for subsequent quantification in spectrophotometer, at 530 nm, with the transmittance adjustment of 80-82% for A. niger and 70% for other microorganisms. After adjustment, there was a 1:50 dilution in RPM. The determination of Minimum Inhibitory Concentration was performed after 7 days, at 28° C. After the incubation period, aliquots of 96-well plates were transferred to Petri plates with Potato Dextrose Agar, to determine the Minimum Fungicidal Concentration. Plates were inoculated for more 7 days, at 28° C.

[11] = test system: Phomopsis longicolla (soy isolate); assay: as above; type: cell-based; conditions: Table 13, Phomopsis longicolla- soy, 7 days, 28° C.
Description: as §1

[12] = test system: Microsporum canis ATCC 32903; assay: as above; type: cell-based; conditions: Table 13, Microsporum canis ATCC 32903, 7 days, 28° C.
Description: as §1

[13] = test system: Candida parapsilosis ATCC 22019; assay: MIC/CFM by microdilution (CLSI M27-A2); type: cell-based
[14] = test system: Candida glabrata ATCC; assay: MIC/CFM against Candida sp. strains; type: cell-based; conditions: Nakaseomyces glabratus; Table 14, Candida glabrata ATCC
[15] = test system: Candida albicans OF-M3-20; assay: MIC/CFM by microdilution (CLSI M27-A2); type: cell-based
Description: (§2) Pure substances termed P1 and P2 previously dissolved in 20% DMSO, were diluted in RPMI medium, with final concentrations of 96 μg.mL-1. […] The same was also tested individually, diluted in RPMI medium, with initial concentration of 1 μL.mL-1. […] Cultures of Candida sp. were prepared and standardized in […] saline solution at 0.85%. For inoculums standardization, a spectrophotometer equipment was used, with wavelength at 530 nm and absorbance adjustment between 0.130 and 0.150, having as white the saline solution free of inoculum or any other contaminant, corresponding to concentrations of 10^6 CFU/mL. In this condition the inoculum “mother” was diluted 50 times and from this inoculum “child” the dilution was performed 20 times to obtain a standard inoculum in 10^3 cells per well. […] To aid in the growth view, were added to the wells dye 50 μL 2,3,5-triphenyltetrazolium chloride (TTC) at 5 mg.mL “1, being performed the readings after 4 hours of incubation. Prior to the addition of dye, aliquots of 96-well plate were transferred to Petri with Agar-Sabouraud Dextrose to determine the Minimum Fungicidal Concentration. Plates were incubated for 24 hours at 35° C.

[16] = test system: Candida albicans OF-M7-19; assay: MIC/CFM by microdilution (CLSI M27-A2); type: cell-based
Description: as §2

[17] = test system: Candida albicans USP 1; assay: MIC/CFM by microdilution (CLSI M27-A2); type: cell-based
Description: as §2

[18] = test system: Candida albicans ATCC 10231; assay: MIC/CFM by microdilution (CLSI M27-A2); type: cell-based
[19] = test system: C. Albicans USP 2; assay: MIC/CFM against Candida sp. strains; type: cell-based; conditions: Table 14, C. Albicans USP 2
[20] = Table 11, C. parapsilosis USP 1933
[21] = Table 11, C. Tropicalis USP 1658

OC(Cn1cncn1)(Cn1cncn1)c1ccc(F)cc1F [Fluconazol]
MIC ([1]; Lodderomyces parapsilosis, USP1933, Table 11, C. parapsilosis USP 1933, read-out: MIC): < 1 µg/mL
MIC ([2]; Pichia kudriavzevii, ATCC6258, Table 11, C. krusei ATCC 6258, read-out: MIC): 8 µg/mL (≈ 26.1 µM)
MIC ([3]; Candida, Table 11, C. guilhermondii USP, read-out: MIC): < 1 µg/mL
MIC ([4]; read-out: MIC): 16 µg/mL (≈ 52.2 µM)
MIC ([5]; Pichia kudriavzevii, ATCC2223, Table 11, C. krusei ATCC 2223, read-out: MIC): 64 µg/mL (≈ 209 µM)
MIC ([6]; Candida tropicalis, USPB3, Table 11, C. Tropicalis USP B3, read-out: MIC): 1 µg/mL (≈ 3.27 µM)
MIC ([7]; Candida albicans, USP1565, Table 11, C. Albicans USP 1565, read-out: MIC): < 1 µg/mL
MIC ([8]; Candida tropicalis, USP1658, Table 11, C. Tropicalis USP 1658, read-out: MIC): < 1 µg/mL

O=S([O-])S(=O)(=O)[O-].[Na+].[Na+] [Metabissulfito]
Antioxidant Activity Percentage ([9]; sample 31.25 μg · mL^−1, 15 minutes at 30° C.): 0%
Antioxidant Activity Percentage ([9]; sample 62.5 μg · mL^−1, 15 minutes at 30° C.): 0%
Antioxidant Activity Percentage ([9]; sample 125 μg · mL^−1, 15 minutes at 30° C.): 1.33%
Antioxidant Activity Percentage ([9]; sample 250 μg · mL^−1, 15 minutes at 30° C.): 4.62%
Antioxidant Activity Percentage ([9]; sample 500 μg · mL^−1, 15 minutes at 30° C.): 8.63%
Antioxidant Activity Percentage ([9]; sample 1 mg · mL^−1, 15 minutes at 30° C.): 15.3%

CN(C/C=C/C#CC(C)(C)C)Cc1cccc2ccccc12 [Terbinafina ®, Terbinafina]
MIC [1, 20]: —
MIC ([2]; Table 11, C. krusei ATCC 6258): —
MIC ([3]; Table 11, C. guilhermondii USP): —
MIC ([4]; read-out: MIC): 0.25 µg/mL (≈ 0.858 µM)
MIC ([5]; Table 11, C. krusei ATCC 2223): —
MIC ([6]; Table 11, C. Tropicalis USP B3): —
MIC ([7]; Table 11, C. Albicans USP 1565): —
MIC [8, 21]: —

C[C@@H]1[C@H](O)[C@@H](C)/C=C/C=C/C=C/C=C/C=C/C=C/C=C/[C@H](O[C@@H]2O[C@H](C)[C@@H](O)[C@H](N)[C@@H]2O)C[C@@H]2O[C@](O)(C[C@@H](O)C[C@@H](O)[C@H](O)CC[C@@H](O)C[C@@H](O)CC(=O)O[C@H]1C)C[C@H](O)[C@H]2C(=O)O [AnfotericinaB, Anfotericina B]
MIC [1, 20]: 2 µg/mL (≈ 2.16 µM)
MIC ([2]; Table 11, C. krusei ATCC 6258): 1 µg/mL (≈ 1.08 µM)
MIC ([3]; Table 11, C. guilhermondii USP): 2 µg/mL (≈ 2.16 µM)
MIC [4]: 1 µg/mL (≈ 1.08 µM)
MIC [10]: 4 µg/mL (≈ 4.33 µM)
MIC [11]: 0.5 µg/mL (≈ 0.541 µM)
MIC [12]: 1.56 µg/mL (≈ 1.69 µM)
MIC ([6]; Table 11, C. Tropicalis USP B3): 2 µg/mL (≈ 2.16 µM)
MIC ([7]; Table 11, C. Albicans USP 1565): 1 µg/mL (≈ 1.08 µM)
MIC [8, 21]: 1 µg/mL (≈ 1.08 µM)

CC1OC(OC2C(O)C(COC(=O)/C=C/c3ccc(O)c(O)c3)OC(OCCc3ccc(O)c(O)c3)C2O)C(O)C(O)C1O (stereo not drawn) [Fraction P3, iso-verbascoside]
MIC ([1]; Lodderomyces parapsilosis, USP1933, Table 14, C. parapsilosis USP 1933 ATCC, read-out: MIC): 3 µg/mL (≈ 4.8 µM)
MFC ([2]; Pichia kudriavzevii, ATCC6258, Table 14, C. krusei ATCC, read-out: CFM (Minimum Fungicidal Concentration)): 12 µg/mL (≈ 19.2 µM)
MIC ([2]; Pichia kudriavzevii, ATCC6258, Table 14, C. krusei ATCC, read-out: MIC): 1.5 µg/mL (≈ 2.4 µM)
MFC ([3]; Table 14, Candida guilhermondi USPATCC, read-out: CFM (Minimum Fungicidal Concentration)): 6 µg/mL (≈ 9.61 µM)
MIC ([3]; Table 14, Candida guilhermondi USPATCC, read-out: MIC): 1.5 µg/mL (≈ 2.4 µM)
MIC ([13]; Lodderomyces parapsilosis, ATCC22019, Table 14, C. parapsilosis ATCC 22019, read-out: MIC): 1.5 µg/mL (≈ 2.4 µM)
MIC [14]: 0.375 µg/mL (≈ 0.6 µM)
MIC ([5]; Pichia kudriavzevii, USP2223, Table 14, C. krusei USP 2223, read-out: MIC): 1.5 µg/mL (≈ 2.4 µM)
MIC ([15]; Candida albicans, OFM320, Table 14, C. Albicans OF M3-20, read-out: MIC): 3 µg/mL (≈ 4.8 µM)
MIC ([16]; Candida albicans, OFM719, Table 14, C. Albicans OF M7-19, read-out: MIC): 0.75 µg/mL (≈ 1.2 µM)
MIC ([17]; Candida albicans, USP1, Table 14, C. Albicans USP 1, read-out: MIC): 1.5 µg/mL (≈ 2.4 µM)
MIC ([6]; Candida tropicalis, USPB3, Table 14, C. Tropicalis UPS B3, read-out: MIC): 6 µg/mL (≈ 9.61 µM)
MIC ([18]; Candida albicans, ATCC10231, Table 14, C. Albicans ATCC 10231, read-out: MIC): 3 µg/mL (≈ 4.8 µM)
MIC [19]: 3 µg/mL (≈ 4.8 µM)

CC(=O)N1CCN(c2ccc(OCC3COC(Cn4ccnc4)(c4ccc(Cl)cc4Cl)O3)cc2)CC1 (stereo not drawn) [Cetoconazol]
MIC ([1]; Table 12, C. parapsilosis USP 1933, 48 h, 35° C.): <0.125 µg/mL
MIC ([2]; Table 12, C. krusei ATCC 6258, 48 h, 35° C.): <0.125 µg/mL
MIC ([3]; Table 12, C. guilhermondii USP, 48 h, 35° C.): 0.125 µg/mL (≈ 0.235 µM)
MIC ([13]; Table 12, C. parapsilosis ATCC 22019, 48 h, 35° C.): <0.125 µg/mL
MIC ([5]; Table 12, C. krusei USP 2223, 48 h, 35° C.): 2 µg/mL (≈ 3.76 µM)
MIC [10]: 2 µg/mL (≈ 3.76 µM)
MIC [11]: <0.125 µg/mL
MIC [12]: 4 µg/mL (≈ 7.53 µM)
MIC ([15]; Table 12, C. albicans OF M3-20, 48 h, 35° C.): <0.125 µg/mL
MIC ([16]; Table 12, C. albicans OF M7-19, 48 h, 35° C.): <0.125 µg/mL
MIC ([17]; Table 12, C. albicans USP 1, 48 h, 35° C.): <0.125 µg/mL
MIC ([18]; Table 12, C. albicans ATCC 10231, 48 h, 35° C.): 32 µg/mL (≈ 60.2 µM)
MIC ([7]; Table 12, C. albicans USP 1565, 48 h, 35° C.): <0.125 µg/mL
MIC ([8]; Table 12, C. tropicalis USP 1658, 48 h, 35° C.): *<4 μg · mL^−1
